The target of test [1] is Genome polyprotein (dengue virus type 2) (UniProt P29990). The experiment in a line: Inhibition of Dengue virus 2 NS2B-NS3 protease using Abz-Nle-Lys-Arg-Arg-Ser-Tyr(3-NO2)-NH2 as substrate at 50 uM preincubated with enzyme for 15 mins followed by substrate addition and measured for 15 mins by FRET assay relative to control. Particulars: time 30.0 min.
Test [2] addresses Genome polyprotein (dengue virus type 2, UniProt P29990). Kind of test: Inhibition of Dengue virus 2 NS2B-NS3 protease using Abz-Nle-Lys-Arg-Arg-Ser-Tyr(3-NO2)-NH2 as substrate preincubated with enzyme for 15 mins followed by substrate addition and measured for 15 mins by FRET assay relative to control.

Residues, ends and D or L forms follow the SMILES beside them. *: point of attachment. NHBn = c1ccc(CN*)cc1; Bz = O=C(c1ccccc1)*; NHiPr = CC(C)N* Some results are limits rather than exact numbers.

In the case of `CC[C@@H](C)[C@H](NC(=O)[C@H](NC(=O)[C@H](CCCCN)NC(=O)[C@H](CCCNC(=N)N)NC(=O)c1ccccc1)c1ccc(OCc2ccccc2)cc1)C(N)=O`, in test [1], the inhibition is 58.1%. `N=C(N)NCCC[C@H](NC(=O)c1ccccc1)C(=O)N[C@@H](CCCCN)C(=O)N[C@@H](C(=O)NCc1ccc(C(N)=O)cc1)c1ccc(OCc2ccccc2)cc1` had an IC50 in test [2] of 0.4 µM. Further, in test [1], the inhibition was 103%. Turning to `N=C(N)NCCC[C@H](NC(=O)c1ccccc1)C(=O)N[C@@H](CCCCN)C(=O)Nc1ccc(OCc2ccccc2)cc1`, the inhibition in test [1] stood at 59.8%.

For the compound `N=C(N)NCCC[C@H](NC(=O)c1ccccc1)C(=O)N[C@@H](Cc1ccc(N)cc1)C(=O)NCc1ccc(OCc2ccccc2)cc1`, the inhibition in test [1] was found to be 69.3%.

Take `N=C(N)NCCC[C@H](NC(=O)c1ccccc1)C(=O)N[C@@H](CCCCN)C(=O)N[C@@H](C(=O)NCc1ccc(CN)cc1)c1ccc(OCc2ccccc2)cc1`: the IC50 in test [2] was found to be 0.3 µM. In addition, the inhibition in test [1] is 99.7%. For `NCCCC[C@H](NC(=O)c1ccccc1)C(=O)N[C@H](Cc1ccc(N)cc1)C(=O)NCc1ccc(OCc2ccccc2)cc1`, half-maximal inhibition in test [2] (IC50) required 35.8 µM. The inhibition in test [1] was determined as 94.5%. With `N=C(N)NCCC[C@H](NC(=O)c1ccccc1)C(=O)N[C@H](Cc1ccc(N)cc1)C(=O)NCc1ccc(OCc2ccccc2)cc1`, in test [1], the inhibition worked out at 29.1%. In test [2], `NCCCC[C@H](NC(=O)c1ccccc1)C(=O)N[C@@H](C(=O)N[C@H](C(N)=O)C1CCCCC1)c1ccc(OCc2ccccc2)cc1` returned an IC50 of 9.4 µM. Besides, the inhibition in test [1] was 99.6%. Regarding `NCCCC[C@H](NC(=O)c1ccccc1)C(=O)N[C@@H](Cc1ccc(N)cc1)C(=O)NCc1ccc(OCc2ccccc2)cc1`, the inhibition in test [1] was under 20%.

The compound `N=C(N)NCCC[C@H](NC(=O)c1ccccc1)C(=O)N[C@@H](CCCCN)C(=O)N[C@@H](C(=O)N[C@H](C(N)=O)C1CCCCC1)c1ccc(OCc2ccccc2)cc1` had an IC50 in test [2] of 13.7 µM. For the same compound, in test [1], the inhibition stood at 95.9%. As for `NCCCC[C@H](NC(=O)c1ccccc1)C(=O)N[C@H](C(=O)N[C@H](C(N)=O)C1CCCCC1)c1ccc(OCc2ccccc2)cc1`, in test [2], the IC50 amounted to 9.9 µM. The inhibition in test [1] was 93.1%.

Regarding `N=C(N)NCCC[C@H](NC(=O)c1ccccc1)C(=O)N[C@@H](CCCCN)C(=O)NCc1ccc(OCc2ccccc2)cc1`, in test [1], the inhibition is 63.3%.

As to `CC(C)NC(=O)[C@H](CCCCN)NC(=O)[C@H](CCCNC(=N)N)NC(=O)c1ccccc1` (Bz-Arg-Lys-NHiPr), the inhibition in test [1] turned out to be 28.8%. Still for that read-out and setting: the figure for `N=C(N)NCCC[C@H](NC(=O)c1ccccc1)C(=O)N[C@@H](CCCCN)C(=O)NCCc1ccc(OCc2ccccc2)cc1` is 63.9%. In test [2], `NCCCC[C@H](NC(=O)c1ccccc1)C(=O)N[C@@H](C(=O)N[C@@H](C(N)=O)C1CCCCC1)c1ccc(OCc2ccccc2)cc1` yielded an IC50 of 7.9 µM. For the same compound, the inhibition in test [1] is 98%. As for `N=C(N)NCCC[C@H](NC(=O)c1ccccc1)C(=O)N[C@@H](CCCCN)C(=O)NCc1ccccc1` (Bz-Arg-Lys-NHBn), the inhibition in test [1] amounted to 41.3%. In test [2], `NCCCC[C@H](NC(=O)[C@@H](NC(=O)c1ccccc1)c1ccc(OCc2ccccc2)cc1)C(=O)N[C@@H](C(N)=O)c1ccc(OCc2ccccc2)cc1` returned an IC50 of 6.6 µM. Also, in test [1], the inhibition amounted to 98.8%.

`N=C(N)Nc1ccc(C[C@H](NC(=O)[C@@H](NC(=O)c2ccccc2)c2ccc(OCc3ccccc3)cc2)C(=O)N[C@@H](C(N)=O)c2ccc(OCc3ccccc3)cc2)cc1`: in test [2], the IC50 stood at 1.7 µM. The inhibition in test [1] was found to be 101%.
